From patent US20020197689A1, “Insecticidal peptides and methods for use of same” (priority 2000, published 2002)
Entries after “also recorded” stand apart in the source; their conditions may differ. Where no end group is shown, it is not given here.

Experiments:
[1] = test system: Spodoptera litura early third-instar larvae; test: Microinjection bioassay of insecticidal activity in Spodoptera litura third-instar larvae; format: in vivo; conditions: for LD50: S. litura larvae, 50% mortality at 24 hours post-injection; for insecticidal activity (in words): S. litura third instar larvae
Description: Due to the small amounts of material involved, bioassays are realized on a microscale, using a microinjection technique as described below. Drosophila melanogaster was used first as an insect model since it is amenable to injection of volumes of 50 nl volumes or less, and is very sensitive to spider toxins. In order to confirm activity against an economically important crop pest, Spodoptera litura early third-instar larvae were also used. S. litura is a highly polyphagous species, and is considered an international pest on cotton, tobacco, tomato, cabbage, cauliflower, peanuts, beans and other plants. However, S. litura is more resistant to toxins than D. melanogaster, and it requires injection of 10 to 100-fold higher doses. Application of the microinjection technique to S. litura larvae enabled its use as a test insect while lowering the amounts of sample used in the bioassays. In particular, early 3rd instar larvae (3 to 5 mg) can be injected successfully with volumes up to 800 nl of toxin composition. Lethal and paralytic activity of may be evaluated using D. melanogaster adult flies (˜0.7 mg/fly) and S. litura early third-instar larvae (5-8 mg/larva). See Escoubas, P., Pahna, H. F., Nakajima, T. (1995), “A Microinjection technique using Drosophila melanogaster for bioassay-guided isolation of neurotoxins in arthropod venoms”, Toxicon, 33(12), 1549-1555.
To perform the bioassay of SV toxin peptides, SV toxin peptides are injected into the dorsolateral area of Drosophila melanogaster adult flies or into the pronotum of 3rd instar Spodoptera litura larvae using a glass micropipette mounted on an automatic microinjector (A203XVY Nanoliter injector, WPI Precision Instruments, Sarasota, Fla., USA). Flies and larvae are examined five seconds after injection for evidence of involuntary contraction of body segments.

[2] = test system: mice; test: Intracerebroventricular injection in mice; format: in vivo, mice (C57B16); conditions: ICV injection, 2 micrograms per mouse
Description: Intracerebroventricular injections (0.1 111 crude venom-equivalent in 5 μl of 20 mg/ml BSA and 9 mg/ml NaCl) of each toxin were also performed on 20 g male mice (C57B16).

Q: How did the LD50 ([1]; injection) turn out when “PaspI (GCLGEGEKCADWSGPSCCDGFYCSCRSMPYCRCRNNS-NH2; disulfide (positions not given here); also: four disulfide bridges, pairing not given here)” was run?
A: not significantly different from the LD50 measured for toxin AaIT

Q: What about the LD50 ([1]; injection, listed as PaspI-NH2) of the same substance?
A: 9.7+4.1 μg/g

Q: What about the “insecticidal activity (in words)” value ([1]; injection) of the same substance?
A: most potent toxin towards S. litura; also recorded: greatest degree of insecticidal activity

Q: Which results are given for “PaspII (ACVGDGQRCASWSGPYCCDGYYCSCRSMPYCRCRNNS; disulfide (positions not given here); also: four disulfide bridges, pairing not given here)”?
A: insecticidal activity (in words) ([1]; injection): insecticidal activity; toxic effect on mice [2]: did have a toxic effect

Q: How did the “insecticidal activity (in words)” value ([1]; injection) turn out when “PaspIII (ADCLNEGDWCADWSGPSCCGEMWCSCPGFGKCRCKK; disulfide (positions not given here); also: four disulfide bridges, pairing not given here)” was run?
A: insecticidal activity

Q: How did the “insecticidal activity (in words)” value ([1]; injection) turn out when “PaspIV (ACATKNQRCASWAGPYCCDGFYCSCRSYPGCMCRPNS; disulfide (positions not given here); also: four disulfide bridges, pairing not given here)” was run?
A: insecticidal activity; also recorded: putatively least potent

Q: “XacI (ECIGGGGGCSVFSGPSCCGGTCKCKFVLIFPKGCHCT)” was tested. Which paralysis of larvae ([1]; isolated peptide, injection, assay procedure of Example 3) did it give?
A: instantaneous paralysis

Q: And the “time to some signs of recovery of treated larvae post-injection” value ([1]; possibly low injection dose, below the LD50)?
A: 8 to 12 h
